# Source: patent US5106407A, “Iodones and methods for antimicrobial use” (priority 1989, dated 1992)
# Where two headings read alike, the source gives them in different places.
# Tests used:
# Enterobacter aerogenes = assay: minimum inhibitory concentration (MIC), agar dilution; type: cell-based; details: for MIC: Klebsiella aerogenes
# Procedure: (§1) The minimum inhibitory concentration (MIC) for the compound of Example 19, i.e., (2-nitrophenyl)-iodonium 2,2-dimethyl-4,6-dioxo-1,3-dioxan-5-ylide was determined for 9 bacteria (using nutrient agar) and 5 yeast and fungi (using malt yeast agar). A one percent solution of this test compound (i.e., the compound of Example 19) was prepared in a mixture of acetone-water. Nutrient agar was prepared at pH 6.8 using deionized water according to standard Difco procedures. Malt yeast agar was prepared by adding 3 g Bacto yeast extract and 42 g Bacto Malt agar per liter of deionized water. The agar (nutrient agar when testing with bacteria and malt yeast agar when testing with yeast and fungi) was dispensed in 30 mL aliquots into 25×200 millimeter (mm) test tubes, capped and autoclaved for 15 min at 115° C. The test tubes containing the agar were cooled in a water bath until the temperature of the agar was 48° C. and then an appropriate amount of the one percent solution of the test compound was added (except in the controls where no test compound was added with the acetone-water) to the respective test tubes so that final concentrations of 500, 250, 100, 50, 25, 10, 5, 2.5, 1.0 and 0 parts per million (ppm) of the test compound in the agar were obtained. The agar solutions were each mixed and poured into individual petri plates so that each petri plate contained agar having a known concentration of test compound dispersed therein. After drying for 24 hr, the petri plates were inoculated with bacteria when the petri plates contained nutrient broth agar or with fungi and yeast when the petri plates contained malt yeast agar.
# (§2) The inoculation with bacteria was accomplished using the following procedure. Twenty-four hr cultures of each of the bacteria were prepared by incubating the respective bacteria in tubes containing nutrient broth for 24 hr at 30° C. in a shaker. Dilutions of each of the 24 hr cultures were made so that 9 separate suspensions (one for each of the 9 test bacteria) were made, each containing about 10^8 colony forming units (CFU) per mL of suspension of a particular bacteria. Aliquots of 0.3 mL of each of the above suspensions were used to fill individual wells of a Steer's Replicator. For each microbial suspension, 0.3 mL was used to fill 3 wells (i.e., 3 wells of 0.3 mL each) so that for the 9 different bacteria 27 wells were filled. The Steer's Replicator was then used to inoculate the petri plates.
# (§3) The petri plates were incubated at 30° C. for 48 hr and then read to determine if the test compound (i.e., the compound of Example 19) which was incorporated into the agar prevented growth of the respective bacteria. The minimum inhibitory concentration (MIC) for each bacteria was defined as the lowest concentration of the test compound which prevented growth of that bacteria.
# (§4) In a similar procedure, the MIC (in ppm) of the compound of Example 11 (i.e., (2-nitrophenyl)-iodonium 2,6-dioxocyclohexylide) for various organisms was determined at an acid pH (about 6.8) and at an alkaline pH (about 8.2).
# (§5) Using similar procedures, the MIC's (in ppm) of various compounds of Formula I and/or Formula II were determined for the organisms Enterobacter aerogenes and Bacillus subtilis in a neutral solution (pH about 6.8) and in an alkaline medium (pH about 8.2).
# Bacillus subtilis = assay: as above; type: cell-based; details: for MIC: Bacillus subtilis
# Procedure: as §1, §2, §3, §4, §5
# [1] = alkaline growth medium (pH = 8.2), read-out: MIC (AEA)
# [2] = neutral growth medium (pH = 6.8), read-out: MIC (NEA)
# [3] = alkaline growth medium (pH = 8.2), read-out: MIC (ABS)
# [4] = neutral growth medium (pH = 6.8), read-out: MIC (NBS)
# [5] = alkaline growth medium (pH = 8.2)
# [6] = neutral growth medium (pH = 6.8)
compound,measurement,setting,value
"O=C1CCC(=O)[C-]1[I+]c1ccccc1[N+](=O)[O-] [Example 10, (2-Nitrophenyl)-iodonium 2,5-dioxocyclopentyl-1-ylide]",MIC,Enterobacter aerogenes; [1],> 500 µg/mL
same,MIC,Enterobacter aerogenes; [2],≤ 10 µg/mL
same,MIC,Bacillus subtilis; [3],> 500 µg/mL
same,MIC,Bacillus subtilis; [4],25 µg/mL
"CC1(C)CC(=O)[C-]([I+]c2ccccc2S(C)(=O)=O)C(=O)C1 [Example 12, ((2-Methylsulfonyl)phenyl)-iodonium 4,4-dimethyl-2,6-dioxocyclohexan-1-ylide]",MIC,Enterobacter aerogenes; [1],> 500 µg/mL
same,MIC,Enterobacter aerogenes; [2],> 500 µg/mL
same,MIC,Bacillus subtilis; [3],100 µg/mL
same,MIC,Bacillus subtilis; [4],250 µg/mL
"CC1(C)CC(=O)[C-]([I+]c2ccccc2[N+](=O)[O-])C(=O)C1 [Example 14, (2-Nitrophenyl)-iodonium 4,4-dimethyl-2,6-dioxocyclohexylide]",MIC,Enterobacter aerogenes; [1],≤ 1 µg/mL
same,MIC,Enterobacter aerogenes; [2],2.5 µg/mL
same,MIC,Bacillus subtilis; [3],≤ 1 µg/mL
same,MIC,Bacillus subtilis; [4],2.5 µg/mL
"CC1CC(=O)[C-]([I+]c2ccccc2[N+](=O)[O-])C(=O)C1 [Example 15, (2-Nitrophenyl)-iodonium 4-methyl-2,6-dioxocyclohexan-1-ylide]",MIC,Enterobacter aerogenes; [1],100 µg/mL
same,MIC,Enterobacter aerogenes; [2],≤ 10 µg/mL
same,MIC,Bacillus subtilis; [3],≤ 10 µg/mL
same,MIC,Bacillus subtilis; [4],≤ 10 µg/mL
"Cc1ccc([I+][C-]2C(=O)OC(C)(C)OC2=O)c([N+](=O)[O-])c1 [Example 16, (4-Methyl-2-nitrophenyl)-iodonium 2,2-dimethyl-4,6-dioxo-1,3-dioxan-5-ylide]",MIC,Enterobacter aerogenes; [1],10 µg/mL
same,MIC,Enterobacter aerogenes; [2],2.5 µg/mL
same,MIC,Bacillus subtilis; [3],5 µg/mL
same,MIC,Bacillus subtilis; [4],2.5 µg/mL
"Cc1ccc(I=C2C(=O)OC(C)(C)OC2=O)c([N+](=O)[O-])c1C [Example 17, (3,4-Dimethyl-2-nitrophenyl)-iodonium 2,2-dimethyl-4,6-dioxo-1,3-dioxan-5-ylide]",MIC (AEA),Enterobacter aerogenes; [5],25 ppm
same,MIC (NEA),Enterobacter aerogenes; [6],25 ppm
same,MIC (ABS),Bacillus subtilis; [5],< 10 ppm
same,MIC (NBS),Bacillus subtilis; [6],< 10 ppm
"CC1(C)OC(=O)[C-]([I+]c2ccc(Cl)cc2[N+](=O)[O-])C(=O)O1 [Example 18, (4-chloro-2-nitrophenyl)-iodonium 2,2-dimethyl-4,6-dioxo-1,3-dioxan-5-ylide]",MIC,Enterobacter aerogenes; [1],250 µg/mL
same,MIC,Enterobacter aerogenes; [2],100 µg/mL
same,MIC,Bacillus subtilis; [3],250 µg/mL
same,MIC,Bacillus subtilis; [4],100 µg/mL
"COc1ccc([I+][C-]2C(=O)OC(C)(C)OC2=O)c([N+](=O)[O-])c1 [Example 20, (4-Methoxy-2-nitrophenyl)-iodonium 2,2-dimethyl-4,6-dioxo-1,3-dioxan-5-ylide]",MIC,Enterobacter aerogenes; [1],25 µg/mL
same,MIC,Enterobacter aerogenes; [2],≤ 10 µg/mL
same,MIC,Bacillus subtilis; [3],25 µg/mL
same,MIC,Bacillus subtilis; [4],≤ 10 µg/mL
"CC1(C)OC(=O)[C-]([I+]c2ccccc2S(C)(=O)=O)C(=O)O1 [Example 21, ((2-Methylsulfonyl)phenyl)-iodonium 2,2-dimethyl-4,6-dioxo-1,3-dioxan-5-ylide]",MIC,Enterobacter aerogenes; [1],> 500 µg/mL
same,MIC,Enterobacter aerogenes; [2],> 500 µg/mL
same,MIC,Bacillus subtilis; [3],50 µg/mL
same,MIC,Bacillus subtilis; [4],25 µg/mL
"O=c1oc2ccc(F)cc2c(=O)[c-]1[I+]c1ccccc1[N+](=O)[O-] [Example 22, (2-Nitrophenyl)-iodonium 6-fluoro-3,4-dihydro-2,4-dioxo-2H-benzopyran-3-ylide]",MIC,Enterobacter aerogenes; [1],250 µg/mL
same,MIC,Enterobacter aerogenes; [2],≤ 10 µg/mL
same,MIC,Bacillus subtilis; [3],100 µg/mL
same,MIC,Bacillus subtilis; [4],≤ 10 µg/mL
"O=c1oc2ccc(Br)cc2c(=O)[c-]1[I+]c1ccccc1[N+](=O)[O-] [Example 23, (2-Nitrophenyl)-iodonium 6-bromo-3,4-dihydro-2,4-dioxo-2H-benzopyran-3-ylide]",MIC,Enterobacter aerogenes; [1],> 500 µg/mL
same,MIC,Enterobacter aerogenes; [2],> 500 µg/mL
same,MIC,Bacillus subtilis; [3],250 µg/mL
same,MIC,Bacillus subtilis; [4],100 µg/mL
"O=C(O)c1ccc2oc(=O)[c-]([I+]c3ccccc3[N+](=O)[O-])c(=O)c2c1 [Example 26, (2-Nitrophenyl)-iodonium 6-carboxy-3,4-diohydro-2,4-dioxo-2H -benzopyran-3-ylide]",MIC,Enterobacter aerogenes; [1],250 µg/mL
same,MIC,Enterobacter aerogenes; [2],250 µg/mL
same,MIC,Bacillus subtilis; [3],250 µg/mL
same,MIC,Bacillus subtilis; [4],≤ 10 µg/mL
"CS(=O)(=O)c1ccccc1[I+][c-]1c(=O)oc2ccc(Cl)cc2c1=O [Example 27, ((2-Methylsulfonyl)phenyl)-iodonium 6-chloro-3,4-dihydro-2,4-dioxo-2H-benzopyran-3-ylide]",MIC,Enterobacter aerogenes; [1],> 500 µg/mL
same,MIC,Enterobacter aerogenes; [2],> 500 µg/mL
same,MIC,Bacillus subtilis; [3],≤ 10 µg/mL
same,MIC,Bacillus subtilis; [4],≤ 10 µg/mL
"COc1ccc2oc(=O)[c-]([I+]c3ccccc3S(C)(=O)=O)c(=O)c2c1 [Example 28, ((2-Methylsulfonyl)phenyl)-iodonium 3,4-dihydro-6-methoxy-2,4-dioxo-2H-benzopyran-3-ylide]",MIC,Enterobacter aerogenes; [1],> 500 µg/mL
same,MIC,Enterobacter aerogenes; [2],> 500 µg/mL
same,MIC,Bacillus subtilis; [3],≤ 10 µg/mL
same,MIC,Bacillus subtilis; [4],≤ 10 µg/mL
"CS(=O)(=O)c1ccccc1[I+][c-]1c(=O)oc2ccc(C(=O)O)cc2c1=O [Example 29, ((2-Methylsulfonyl)phenyl)-iodonium 6-carboxy-3,4-dihydro-2,4-dioxo-2H-benzopyran-3-ylide]",MIC,Enterobacter aerogenes; [1],> 500 µg/mL
same,MIC,Enterobacter aerogenes; [2],> 500 µg/mL
same,MIC,Bacillus subtilis; [3],≤ 10 µg/mL
same,MIC,Bacillus subtilis; [4],≤ 10 µg/mL
"CS(=O)(=O)c1ccccc1[I+][c-]1c(=O)oc2ccc(Br)cc2c1=O [Example 30, ((2-Methylsulfonyl)phenyl)-iodonium 6-bromo-3,4-dihydro-2,4-dioxo-2H-benzopyran-3-ylide]",MIC,Enterobacter aerogenes; [1],> 500 µg/mL
same,MIC,Enterobacter aerogenes; [2],> 500 µg/mL
same,MIC,Bacillus subtilis; [3],≤ 10 µg/mL
same,MIC,Bacillus subtilis; [4],≤ 10 µg/mL
"O=c1oc2ccccc2c(=O)[c-]1[I+]c1ccccc1[N+](=O)[O-] [Example 32, (2-Nitrophenyl)-iodonium 3,4-dihydro-2,4-dioxo-2H-benzopyran-3-ylide]",MIC,Enterobacter aerogenes; [1],25 µg/mL
same,MIC,Enterobacter aerogenes; [2],≤ 10 µg/mL
same,MIC,Bacillus subtilis; [3],≤ 10 µg/mL
same,MIC,Bacillus subtilis; [4],≤ 10 µg/mL
"COc1ccc2oc(=O)[c-]([I+]c3ccccc3[N+](=O)[O-])c(=O)c2c1 [Example 33, (2-Nitrophenyl)-iodonium 3,4-dihydro-6-methoxy-2,4-dioxo-2H-benzopyran-3-ylide]",MIC,Enterobacter aerogenes; [1],> 500 µg/mL
same,MIC,Enterobacter aerogenes; [2],> 500 µg/mL
same,MIC,Bacillus subtilis; [3],≤ 10 µg/mL
same,MIC,Bacillus subtilis; [4],≤ 10 µg/mL
"Cc1cccc2c(=O)[c-]([I+]c3ccccc3[N+](=O)[O-])c(=O)oc12 [Example 34, (2-Nitrophenyl)-iodonium 3,4-dihydro-8-methyl-2,4-dioxo-2H-benzopyran-3-ylide]",MIC,Enterobacter aerogenes; [1],500 µg/mL
same,MIC,Enterobacter aerogenes; [2],500 µg/mL
same,MIC,Bacillus subtilis; [3],25 µg/mL
same,MIC,Bacillus subtilis; [4],≤ 10 µg/mL
"CCn1c(=O)[c-]([I+]c2ccccc2[N+](=O)[O-])c(=O)n(CC)c1=S [Example 36, (2-Nitrophenyl)-iodonium 1,3-diethylhexahydro-4,6-dioxo-2-thiopyrimidin-5-ylide]",MIC,Enterobacter aerogenes; [1],> 500 µg/mL
same,MIC,Enterobacter aerogenes; [2],500 µg/mL
same,MIC,Bacillus subtilis; [3],> 500 µg/mL
same,MIC,Bacillus subtilis; [4],> 500 µg/mL
"O=c1[nH]c2ccccc2c(=O)[c-]1[I+]c1ccccc1[N+](=O)[O-] [Example 41, (2-Nitrophenyl)-iodonium 1,2,3,4-tetrahydro-2,4-dioxoquinolin-3-ylide]",MIC,Enterobacter aerogenes; [1],> 500 µg/mL
same,MIC,Enterobacter aerogenes; [2],≤ 10 µg/mL
same,MIC,Bacillus subtilis; [3],500 µg/mL
same,MIC,Bacillus subtilis; [4],≤ 10 µg/mL
"CS(=O)(=O)c1ccccc1[I+][c-]1c(=O)cc[nH]c1=O [Example 42, ((2-Methylsulfonyl)phenyl)-iodonium 1,2,3,4-tetrahydro-2,4-dioxopyridine3-ylide]",MIC,Enterobacter aerogenes; [1],> 500 µg/mL
same,MIC,Enterobacter aerogenes; [2],500 µg/mL
same,MIC,Bacillus subtilis; [3],500 µg/mL
same,MIC,Bacillus subtilis; [4],500 µg/mL
"O=c1cc[nH]c(=O)[c-]1[I+]c1ccccc1[N+](=O)[O-] [Example 43, (2-Nitrophenyl)-iodonium 1,2,3,4-tetrahydro-2,4-dioxopyridin-3-ylide]",MIC,Enterobacter aerogenes; [1],> 500 µg/mL
same,MIC,Enterobacter aerogenes; [2],500 µg/mL
same,MIC,Bacillus subtilis; [3],500 µg/mL
same,MIC,Bacillus subtilis; [4],50 µg/mL
"(2-Nitrophenyl)-iodonium 3,4,5,6-tetrahydro-4,6-doxo-5-pyrimidinylide [Example 35]",MIC (AEA),Enterobacter aerogenes; [5],> 500 ppm
